Data reported in ChEMBL document CHEMBL1201862, “PubChem BioAssay data set” (2004).
Activity calls are given as the source filed them.

Tests used:
[1] = HIV-1 AD8 envelope cell-cell fusion blockers – cherry-pick, dose response (AID 652062); format: functional, cell-based;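 also: luciferase signal from cell-cell fusion driven by HIV-1 clade B AD8 Env; potency is for inhibitors of fusion seen as a drop in luminescence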
[2] = blockers of HIV-1 envelope-mediated cell-cell fusion – cherry-pick, dose response (AID 652057); format: functional, cell-based
[3] = OVCAR-3 cell viability loss – plate reader, dry powder samples, PAX8 inhibitor project, dose response (AID 743044); format: functional, cell-based
[4] = target: Paired box protein Pax-8 (Homo sapiens, UniProt Q06710); assay: PAX8 transcriptional activity inhibition in RMG-I – RMG-I cells, luciferase, cherry-pick, dose response (AID 687027); format: functional, cell-based;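 also: luciferase reporter driven by Pax8 target thyroperoxidase promoter measured by SteadyGlo luminescence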
Chain of Paired box protein Pax-8 (Q06710 whole entry): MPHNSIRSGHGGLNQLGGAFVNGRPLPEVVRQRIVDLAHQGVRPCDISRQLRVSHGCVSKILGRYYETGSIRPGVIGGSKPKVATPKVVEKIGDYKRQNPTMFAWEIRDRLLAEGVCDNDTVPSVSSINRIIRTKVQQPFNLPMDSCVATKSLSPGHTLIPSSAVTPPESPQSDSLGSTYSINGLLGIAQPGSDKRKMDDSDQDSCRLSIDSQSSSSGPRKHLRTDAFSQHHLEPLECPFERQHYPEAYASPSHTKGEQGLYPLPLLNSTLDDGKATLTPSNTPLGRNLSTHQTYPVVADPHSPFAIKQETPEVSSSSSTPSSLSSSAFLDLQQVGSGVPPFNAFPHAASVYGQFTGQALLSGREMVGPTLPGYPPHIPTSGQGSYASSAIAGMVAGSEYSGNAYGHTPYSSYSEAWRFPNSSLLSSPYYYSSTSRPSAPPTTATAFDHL

[5] = cells; format: functional, cell-based
[6] = cells; format: functional, cell-based; remark: listed apart in the source
[7] = target: T1, Fatty acid synthase (Homo sapiens, UniProt P49327); assay: inhibition of human FAS-TE enzyme activity – biochemical, kinetic fluorescence intensity, dose response (AID 624326); format: functional;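 also: rate of fluorescence rise from hydrolysis of a fluorogenic O-methyl fluorescein ester substrate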
T1 sequence (P49327 whole entry): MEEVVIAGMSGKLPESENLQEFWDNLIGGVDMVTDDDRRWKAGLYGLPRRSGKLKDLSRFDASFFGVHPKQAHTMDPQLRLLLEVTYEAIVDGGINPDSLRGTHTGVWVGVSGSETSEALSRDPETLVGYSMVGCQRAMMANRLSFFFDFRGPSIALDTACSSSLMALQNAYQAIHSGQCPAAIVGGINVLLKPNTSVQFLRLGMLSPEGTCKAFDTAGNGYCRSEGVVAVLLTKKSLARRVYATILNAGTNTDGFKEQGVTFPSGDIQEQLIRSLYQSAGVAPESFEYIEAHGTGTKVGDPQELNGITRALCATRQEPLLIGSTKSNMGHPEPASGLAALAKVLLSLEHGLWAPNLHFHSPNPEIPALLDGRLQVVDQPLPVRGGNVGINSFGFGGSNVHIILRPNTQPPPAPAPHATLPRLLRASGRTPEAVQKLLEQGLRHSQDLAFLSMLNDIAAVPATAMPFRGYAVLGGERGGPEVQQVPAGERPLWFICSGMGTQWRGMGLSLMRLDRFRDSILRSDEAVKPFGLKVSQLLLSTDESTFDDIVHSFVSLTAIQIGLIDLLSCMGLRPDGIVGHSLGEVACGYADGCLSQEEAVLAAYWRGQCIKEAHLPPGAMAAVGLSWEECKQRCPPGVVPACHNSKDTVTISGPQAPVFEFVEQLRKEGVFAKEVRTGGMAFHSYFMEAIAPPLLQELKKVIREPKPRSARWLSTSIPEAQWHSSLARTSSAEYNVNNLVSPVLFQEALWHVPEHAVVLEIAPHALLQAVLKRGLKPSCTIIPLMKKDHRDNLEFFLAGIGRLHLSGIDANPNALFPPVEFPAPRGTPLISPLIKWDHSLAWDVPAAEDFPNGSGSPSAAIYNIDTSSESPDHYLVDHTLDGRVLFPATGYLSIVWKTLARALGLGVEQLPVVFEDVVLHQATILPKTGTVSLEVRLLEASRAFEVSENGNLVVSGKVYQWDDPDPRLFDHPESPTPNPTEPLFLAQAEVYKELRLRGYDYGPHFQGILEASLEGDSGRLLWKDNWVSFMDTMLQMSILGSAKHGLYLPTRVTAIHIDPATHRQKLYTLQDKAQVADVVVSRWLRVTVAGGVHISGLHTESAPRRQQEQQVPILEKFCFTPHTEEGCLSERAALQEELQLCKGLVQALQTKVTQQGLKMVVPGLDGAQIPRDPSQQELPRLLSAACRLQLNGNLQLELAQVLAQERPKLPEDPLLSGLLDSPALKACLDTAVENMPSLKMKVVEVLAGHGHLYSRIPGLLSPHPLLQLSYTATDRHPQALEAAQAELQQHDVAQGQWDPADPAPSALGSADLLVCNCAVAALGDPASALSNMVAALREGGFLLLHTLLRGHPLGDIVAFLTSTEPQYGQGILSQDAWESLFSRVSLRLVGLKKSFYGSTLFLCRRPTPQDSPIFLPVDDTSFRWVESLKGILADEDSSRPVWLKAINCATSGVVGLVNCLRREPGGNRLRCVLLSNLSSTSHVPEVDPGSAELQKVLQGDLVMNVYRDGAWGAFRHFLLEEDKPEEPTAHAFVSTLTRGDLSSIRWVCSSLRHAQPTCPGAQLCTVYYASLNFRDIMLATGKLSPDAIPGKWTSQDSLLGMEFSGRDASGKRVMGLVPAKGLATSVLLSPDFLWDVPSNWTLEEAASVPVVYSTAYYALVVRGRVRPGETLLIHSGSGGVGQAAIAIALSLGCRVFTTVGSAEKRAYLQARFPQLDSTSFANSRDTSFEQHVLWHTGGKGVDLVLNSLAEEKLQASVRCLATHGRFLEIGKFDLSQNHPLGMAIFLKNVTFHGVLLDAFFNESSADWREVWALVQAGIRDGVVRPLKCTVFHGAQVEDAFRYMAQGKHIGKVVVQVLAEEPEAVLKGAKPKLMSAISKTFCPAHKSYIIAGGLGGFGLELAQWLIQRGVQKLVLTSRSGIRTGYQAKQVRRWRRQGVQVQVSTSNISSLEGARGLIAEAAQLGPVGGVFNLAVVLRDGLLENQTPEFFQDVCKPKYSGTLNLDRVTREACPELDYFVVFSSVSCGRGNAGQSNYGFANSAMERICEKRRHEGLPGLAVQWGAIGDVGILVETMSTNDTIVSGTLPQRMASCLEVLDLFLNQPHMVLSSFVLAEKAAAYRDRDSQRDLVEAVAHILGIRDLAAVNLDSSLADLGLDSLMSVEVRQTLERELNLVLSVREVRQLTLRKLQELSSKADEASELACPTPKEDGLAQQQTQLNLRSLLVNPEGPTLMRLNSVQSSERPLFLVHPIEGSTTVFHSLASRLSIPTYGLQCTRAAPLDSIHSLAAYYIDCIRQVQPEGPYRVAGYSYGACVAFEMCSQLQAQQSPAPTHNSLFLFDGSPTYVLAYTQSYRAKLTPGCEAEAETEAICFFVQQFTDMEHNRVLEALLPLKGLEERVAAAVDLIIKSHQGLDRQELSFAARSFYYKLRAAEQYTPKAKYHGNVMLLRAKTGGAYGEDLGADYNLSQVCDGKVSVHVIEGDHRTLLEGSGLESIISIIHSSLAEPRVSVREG

[8] = target: T1, Fatty acid synthase; assay: inhibition of human FAS-TE enzyme activity – biochemical, endpoint fluorescence intensity, uHTS hits, dose response (AID 624327); format: functional;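 also: fluorescence from hydrolysis of an O-methyl fluorescein acyl ester substrate by the enzyme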
[9] = test system: BJ; assay: cells; format: functional, cell-based; conditions: Homo sapiens
[10] = test system: BJ; assay: BJ-TERT-LT-ST fibroblast viability loss – cell-based, RAS-independent, luminescence, dose response (AID 1935); format: functional; conditions: Homo sapiens;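 also: BJ fibroblasts immortalized with TERT plus LT and ST oncogenes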
[11] = DRD fibroblast viability loss – cell-based, non-viral oncogenic, luminescence, dose response (AID 1934); format: functional; conditions: Homo sapiens
[12] = fluconazole-exposed Candida albicans growth modulators – fluorescence, retest, confirmation (AID 2467); format: functional, cell-based
[13] = target: T2, Carboxy-terminal domain RNA polymerase II polypeptide A small phosphatase 1 (Homo sapiens, UniProt Q9GZU7); assay: CTDSP1 inhibitors, concentration-response, biochemical, absorbance readout, ultra-high-throughput screen actives (AID 540297); format: functional
T2 sequence (Q9GZU7 whole entry): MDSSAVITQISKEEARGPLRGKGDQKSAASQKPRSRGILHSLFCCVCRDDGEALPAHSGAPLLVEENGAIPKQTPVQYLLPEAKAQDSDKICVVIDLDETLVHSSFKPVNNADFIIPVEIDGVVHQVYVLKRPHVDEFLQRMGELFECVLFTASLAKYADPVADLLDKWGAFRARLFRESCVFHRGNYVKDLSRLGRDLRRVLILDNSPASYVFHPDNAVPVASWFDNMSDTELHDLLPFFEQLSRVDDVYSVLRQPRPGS

[14] = target: Cytochrome P450 2C19 (Homo sapiens, UniProt P33261); assay: Cytochrome panel assay with activity outcomes. Panel member name: p450-cyp2c19 Compounds with AC50 equal or less than 10 uM are considered active; format: functional; conditions: read-out: AC50
Chain of Cytochrome P450 2C19 (P33261 whole entry): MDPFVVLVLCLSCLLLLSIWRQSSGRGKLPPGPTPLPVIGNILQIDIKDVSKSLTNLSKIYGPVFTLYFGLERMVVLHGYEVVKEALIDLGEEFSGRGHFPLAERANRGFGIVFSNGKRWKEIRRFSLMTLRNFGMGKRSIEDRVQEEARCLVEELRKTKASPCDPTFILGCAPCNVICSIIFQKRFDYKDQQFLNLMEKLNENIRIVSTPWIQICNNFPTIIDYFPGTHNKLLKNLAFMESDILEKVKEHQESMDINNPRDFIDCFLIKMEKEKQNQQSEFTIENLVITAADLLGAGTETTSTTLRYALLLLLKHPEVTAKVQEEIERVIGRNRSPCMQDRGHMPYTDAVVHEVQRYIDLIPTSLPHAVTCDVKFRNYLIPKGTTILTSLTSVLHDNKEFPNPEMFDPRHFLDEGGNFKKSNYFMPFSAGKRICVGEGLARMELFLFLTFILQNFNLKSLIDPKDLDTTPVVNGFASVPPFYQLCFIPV

[15] = target: Cytochrome P450 2C9 (Homo sapiens, UniProt P11712)
Chain of Cytochrome P450 2C9 (P11712 whole entry): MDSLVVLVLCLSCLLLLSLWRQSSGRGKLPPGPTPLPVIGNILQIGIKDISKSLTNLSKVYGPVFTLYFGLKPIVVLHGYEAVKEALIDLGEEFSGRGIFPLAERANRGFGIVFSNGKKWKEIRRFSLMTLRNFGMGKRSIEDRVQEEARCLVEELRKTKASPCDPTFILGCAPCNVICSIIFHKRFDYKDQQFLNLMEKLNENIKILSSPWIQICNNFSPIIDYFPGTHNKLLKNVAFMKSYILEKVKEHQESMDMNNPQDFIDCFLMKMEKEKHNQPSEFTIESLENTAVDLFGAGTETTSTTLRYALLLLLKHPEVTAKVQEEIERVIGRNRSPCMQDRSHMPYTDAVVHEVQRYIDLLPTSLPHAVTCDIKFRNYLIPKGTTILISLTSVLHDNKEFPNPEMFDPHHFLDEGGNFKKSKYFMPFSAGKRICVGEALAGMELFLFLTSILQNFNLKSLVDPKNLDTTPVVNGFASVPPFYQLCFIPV

[16] = target: Cytochrome P450 3A4 (Homo sapiens, UniProt P08684);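 also: CYP3A4 tested as one member of a cytochrome P450 panel screen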
[17] = target: Cytochrome P450 2D6 (Homo sapiens, UniProt P10635);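 also: CYP2D6 member of a cytochrome P450 panel assay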
[18] = NIH-3T3 fibroblast cytotoxicity, dose response, cytotoxicity control, cell-based, fluorescence, Alamar Blue, secondary assay (AID 2327); format: functional;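 also: NIH-3T3 mouse fibroblasts cultured with fluconazole at 8 µg/mL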
[19] = target: T3, Cytochrome P450 1A2 (Homo sapiens, UniProt P05177);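 also: PubChem cytochrome P450 panel assay, CYP1A2 panel member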
T3 sequence (P05177 whole entry): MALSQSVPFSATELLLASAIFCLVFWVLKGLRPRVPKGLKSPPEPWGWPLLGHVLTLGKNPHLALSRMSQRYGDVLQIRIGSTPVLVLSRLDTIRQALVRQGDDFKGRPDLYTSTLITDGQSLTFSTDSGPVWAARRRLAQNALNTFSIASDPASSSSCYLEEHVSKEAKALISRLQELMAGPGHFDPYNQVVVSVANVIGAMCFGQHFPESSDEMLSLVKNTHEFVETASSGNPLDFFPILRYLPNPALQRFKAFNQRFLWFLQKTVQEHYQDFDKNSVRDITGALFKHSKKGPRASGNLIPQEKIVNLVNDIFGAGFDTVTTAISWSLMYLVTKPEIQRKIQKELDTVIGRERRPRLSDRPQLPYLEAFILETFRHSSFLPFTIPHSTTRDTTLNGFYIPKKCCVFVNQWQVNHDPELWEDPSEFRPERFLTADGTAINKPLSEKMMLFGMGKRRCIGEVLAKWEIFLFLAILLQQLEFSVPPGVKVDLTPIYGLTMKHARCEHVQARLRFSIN

[20] = luciferase reporter signal suppression in cells – H4 neuroglioma cells, luminescence, dose response (AID 1990); format: functional, cell-based
[21] = Luminescence Cell-Based Dose Response HTS to Identify Inhibitors of 5'UTR Stem-Loop Driven Prion Protein mRNA Translation in H4 Neuroglioblastoma Cells. [Related pubchem assays: 1827 (Project Summary), 1813 (Primary HTS)]; format: functional
[22] = alpha-synuclein stem-loop luciferase translation blockers – H4 neuroglioma cells, luminescence, confirmation (AID 1988); format: functional, cell-based
[23] = target: Luciferin 4-monooxygenase (Photinus pyralis, UniProt P08659); assay: inhibition of purified Photinus pyralis luciferase – biochemical, luminescence, dose response (AID 1891)
[24] = Luminescence Cell-Based Dose Confirmation HTS to Identify Inhibitors of Platelet Dense Granule Release. [Related pubchem assays: 1663 (Primary HTS), 1678 (Summary of Project)]; format: functional
[25] = cells; format: functional
[26] = target: Large T antigen (Simian virus 40, UniProt P03070); format: functional, Betapolyomavirus macacae;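 also: Confirmatory-stage PubChem screen for compounds that inhibit SV40 T antigen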
Chain of Large T antigen (P03070 whole entry): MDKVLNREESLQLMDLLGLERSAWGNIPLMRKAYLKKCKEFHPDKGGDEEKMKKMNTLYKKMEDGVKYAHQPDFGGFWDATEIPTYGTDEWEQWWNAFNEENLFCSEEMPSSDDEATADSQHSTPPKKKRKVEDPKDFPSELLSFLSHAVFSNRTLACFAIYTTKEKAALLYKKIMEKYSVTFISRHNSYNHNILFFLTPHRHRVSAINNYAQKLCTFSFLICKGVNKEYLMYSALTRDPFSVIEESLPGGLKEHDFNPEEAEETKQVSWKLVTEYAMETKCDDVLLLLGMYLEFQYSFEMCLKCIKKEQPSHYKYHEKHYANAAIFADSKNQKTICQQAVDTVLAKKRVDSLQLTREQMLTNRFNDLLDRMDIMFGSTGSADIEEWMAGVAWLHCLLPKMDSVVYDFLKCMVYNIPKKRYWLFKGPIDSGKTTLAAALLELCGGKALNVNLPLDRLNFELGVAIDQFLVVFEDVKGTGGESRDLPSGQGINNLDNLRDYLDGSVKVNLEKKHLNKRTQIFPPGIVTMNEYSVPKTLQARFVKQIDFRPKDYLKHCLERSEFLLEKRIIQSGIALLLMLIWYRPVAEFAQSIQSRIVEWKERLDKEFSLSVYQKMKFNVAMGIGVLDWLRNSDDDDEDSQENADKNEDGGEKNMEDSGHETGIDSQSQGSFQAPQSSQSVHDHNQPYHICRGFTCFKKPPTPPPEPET

[27] = target: Genome polyprotein (dengue virus type 2, UniProt P29990); assay: flavivirus cap methylation enzyme inhibition – biochemical, confirmation dose response, primary screen (AID 588689); format: functional
[28] = target: FAD-linked sulfhydryl oxidase ALR (Homo sapiens, UniProt P55789); assay: ALR-catalysed DTT oxidation blockers – biochemical, H2O2 detection, luminescence, cherry-pick, dose response (AID 493248)
Chain of FAD-linked sulfhydryl oxidase ALR (P55789 whole entry): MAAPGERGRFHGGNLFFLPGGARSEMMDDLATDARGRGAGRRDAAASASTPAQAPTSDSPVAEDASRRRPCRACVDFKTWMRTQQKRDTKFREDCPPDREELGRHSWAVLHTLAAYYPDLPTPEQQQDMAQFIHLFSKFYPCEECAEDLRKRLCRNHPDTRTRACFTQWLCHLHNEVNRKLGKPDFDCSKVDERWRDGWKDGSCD

CCNC(=O)C[C@@H]1CC[C@@H]2[C@@H](COc3ccc(NC(=O)Cc4cccs4)cc3C(=O)N2C)O1
AC50 [1]: 41.5 µM (active)

C[C@H](CO)N1C[C@H](C)[C@H](CN(C)S(=O)(=O)c2cccs2)Oc2ccc(NC(=O)NC3CCCCC3)cc2CC1=O
AC50 [1]: 3.49 µM (active) | AC50 [2]: 1.19 µM (active)

C[C@H]1CN([C@@H](C)CO)S(=O)(=O)c2ccc(C#Cc3ccc(F)cc3)cc2O[C@H]1CN(C)C(=O)NC1CCCCC1
AC50 [3]: 44.5 µM (active) | AC50 [4]: 8.09 µM (active)

Cc1cc(O)nc(SCC(=O)Nc2nonc2C)n1
EC50 [5]: > 350 µM (not active) | EC50 [6]: > 350 µM (not active)

CN(CC1CCCO1)S(=O)(=O)c1ccc(C(=O)Nc2nccs2)cc1 (stereo not given)
EC50 [5]: > 350 µM (not active) | EC50 [6]: > 350 µM (not active)

O=C(C[C@@H]1C[C@H]2c3cc(NC(=O)Nc4ccc(C(F)(F)F)cc4)ccc3O[C@H]2[C@H](CO)O1)NCc1ccc(Cl)cc1
AC50 [3]: 68.2 µM (active) | AC50 [4]: 17.5 µM (active)

CC1CCCC(C)N1C(=O)COC(=O)c1cc([N+](=O)[O-])ccc1N1CCOCC1 (stereo not given)
IC50 [7]: 9.93 µM (active) | IC50 [8]: 7.31 µM (active)

CCOc1ccccc1C1C2=C(O)OCC2=Nc2cc3c(cc21)OCO3 (stereo not given)
EC50 [9]: 1.11 µM (inconclusive) | EC50 [10]: 0.442 µM (active) | AC50 [4]: 2.15 µM (active) | EC50 [11]: 0.468 µM (active) | EC50 [12]: > 38 µM (not active)

COc1ccc(/C=C(\NC(=O)c2ccc([N+](=O)[O-])cc2)C(=O)NCCCn2ccnc2)cc1
IC50 [7]: 3.01 µM (active) | IC50 [8]: 2.35 µM (active)

C[n+]1ccccc1C1CCCC/C1=N\NC(N)=S (stereo not given)
IC50 [13]: 5.71 µM (active)

COc1ccc2c(c1)c(=O)oc1c(C)c(OC(C)C(=O)N[C@@H](Cc3c[nH]c4ccc(O)cc34)C(=O)O)ccc12 (stereo not given in full)
IC50 [13]: 6.88 µM (active)

Oc1c(Br)c(Br)c(Br)c(Br)c1Br [PENTABROMOPHENOL]
IC50 [7]: 6.52 µM (active) | IC50 [8]: 6.27 µM (active)

COc1cc(/C=C(/C#N)C(=O)Nc2ccccc2)ccc1OCc1ccc(C(=O)O)cc1
IC50 [13]: 3.34 µM (active)

CC(C)C(=O)c1c(C(C)C)nn2ccccc12 [IBUDILAST]
AC50 [14]: 3.16 µM (inconclusive) | AC50 [15]: inconclusive

O=C(NCC1CCCO1)c1cc(-c2ccc(F)cc2)no1 (stereo not given)
EC50 [5]: > 350 µM (not active) | EC50 [6]: 143 µM (active)

CC(=O)Nc1cc(S(=O)(=O)Nc2ccccc2)c(C)cc1C
AC50 [16]: 28.2 µM (inconclusive) | AC50 [15]: inconclusive

COc1ccc(S(=O)(=O)NCCC(=O)NCc2ccc(F)cc2)cc1
AC50 [16]: 28.2 µM (inconclusive) | AC50 [15]: inconclusive | AC50 [17]: 50.1 µM (inconclusive)

COc1ccc(CCNC(=O)CC(NC(=O)c2ccccc2Cl)c2ccccc2)cc1 (stereo not given)
EC50 [5]: > 350 µM (not active) | EC50 [6]: > 350 µM (not active)

CCOC(=O)/C(=N\Nc1cccc(C(F)(F)F)c1)N1CCOCC1
EC50 [5]: 320 µM (active) | EC50 [18]: > 160 µM (inconclusive) | EC50 [6]: > 350 µM (not active) | EC50 [12]: > 38 µM (not active)

NC(=NOC(=O)CC1CCCCC1)c1cccc([N+](=O)[O-])c1
IC50 [7]: 8.29 µM (active) | IC50 [8]: 7.05 µM (active)

COc1ccc(N/C=C\C(=O)c2ccc3c(c2)OCO3)cc1
EC50 [5]: 4.39 µM (active) | EC50 [6]: > 350 µM (not active)

COc1ccc(S(=O)(=O)N2CCN(CC(=O)Nc3cccc(F)c3)CC2)cc1
AC50 [19]: 0.0794 µM (inconclusive) | AC50 [15]: inconclusive | AC50 [17]: 25.1 µM (inconclusive)

Cc1ccc(C(=O)N/N=C/c2cc(C)n(-c3ccc(Br)cc3)c2C)cc1[N+](=O)[O-]
EC50 [20]: 11.2 µM (active) | EC50 [21]: 17.4 µM (active) | EC50 [22]: 16.7 µM (active) | AC50 [15]: inconclusive

O=C(COC(=O)c1ccc(S(=O)(=O)NCc2ccco2)cc1)Nc1ccc(Cl)cn1
IC50 [13]: 4.79 µM (active)

O=C(c1cccnc1)c1cc2ccccc2[nH]1
EC50 [5]: 31.3 µM (active) | EC50 [6]: > 350 µM (not active)

CCOc1ccccc1/C=C(\C#N)C(N)=O
AC50 [15]: inconclusive

COCCNC(=O)CSc1nc(-c2ccc(OC)c(OC)c2)cc(C(F)(F)F)n1
EC50 [23]: > 112 µM (not active) | EC50 [24]: > 112 µM (not active)

O=C(C[C@H]1CC[C@@H](NC(=O)c2cccc(F)c2)[C@H](CO)O1)NCc1ccc(Oc2ccccc2)cc1
AC50 [1]: 1.17 µM (active) | AC50 [2]: 1.2 µM (active)

O=C(CNC(=O)c1ccc([N+](=O)[O-])cc1)c1ccccc1
AC50 [14]: 2.82 µM (inconclusive) | AC50 [15]: inconclusive

O=C(OCC(=O)N1CCN(c2ccccc2)CC1)c1ccc(Cl)cc1[N+](=O)[O-]
IC50 [25]: > 50 µM (active)

N=C1/C(=C\c2ccc(Br)o2)C(=O)N=C2SC(CC(=O)N3CCCCC3)=NN12
IC50 [26]: > 100 µM (active) | IC50 [13]: 26.7 µM (active)

Cc1ccc(S(=O)(=O)Nc2cccc(-c3ccc(N4CCCCCC4)nn3)c2)cc1
IC50 [7]: 3.42 µM (active) | IC50 [8]: 6.68 µM (active)

CN(C)S(=O)(=O)c1ccc(Cl)c(NC(=O)CSc2nc3ccccc3c(=O)n2CCCN2CCOCC2)c1
EC50 [23]: > 112 µM (not active) | EC50 [24]: 17.8 µM (active)

O=C(Cn1ncc(Cl)c(Cl)c1=O)NC1CCS(=O)(=O)C1 (stereo not given)
IC50 [13]: 8.49 µM (active)

O=C1NN(c2ccccc2)C(=O)/C1=C/c1ccc(-c2cccc(C(=O)O)c2)o1
IC50 [27]: 30.6 µM (active) | AC50 [28]: 0.228 µM (active) | IC50 [26]: 24.3 µM (active) | IC50 [13]: 11 µM (active)

CCOc1ccc(-c2ccc(NS(=O)(=O)c3cc([N+](=O)[O-])c(C)c([N+](=O)[O-])c3)cc2)nn1
IC50 [7]: 0.706 µM (active) | IC50 [8]: 0.872 µM (active)
